Where two headings read alike, the source gives them in different places.
Experiments:
B16 melanoma cells [1] = experiment: Cytotoxicity test (MTT assay), relative cell survival rate; type: cell-based
Experimental: (§1) B16 melanoma cells (DS pharma Biomedical) were used as skin melanocytes. The B16 melanoma cells were cultured in a CO2 incubator (37° C., 5% CO2) in 10 cm dishes containing the DMEM medium supplemented with 10% FBS. A cell suspension at 5.0×10^4 cells/mL was prepared from the cultured cells. 998 μL aliquots of the cell suspension were dispensed into 24 well plates and cultured in a CO2 incubator (37° C., 5% CO2) overnight. Subsequently, 2 μL of the DMSO solution of the methanol extract from Syzygium polyanthum prepared in Production Example 3 was added to each well (the final concentrations of the extract: 25 and 50 μg/mL) and the mixtures were further cultured for 72 hours. Arbutin (730 μM) was used instead of the extract as a positive control. DMSO was used as control.
The MTT assay solution was prepared by dissolving 50 mg of Thiazolyl Blue Tetrazolium Bromide (SIGMA) in 10 mL of PBS (−). 50 μL of the MTT assay solution was added to each culture prepared in (1) and reacted for 4 hours. Then, 1 mL of isopropanol for MTT was added to each culture and the plate was covered with aluminum foil and allowed for reaction at room temperature for 2 hours for the reaction. After the reaction, the total amount was collected and centrifuged (1.45×10^3 rpm, 1 min), then 150 μL each of the supernatants was transferred into a 96 well plate, and the absorbance was measured at 590 nm. The relative cell survival rate (cytotoxicity) was calculated by determining the relative value to the control.
(§2) The assay for tyrosinase activity was conducted in a procedure similar to that in Example 1 (3) using Compounds 1-3 as samples. In the tyrosinase activity assay, the final concentrations of each compound were adjusted to 100, 50, 25, and 12.5 mM and IC50 was calculated. Moreover, tests for melanogenesis inhibiting activity and for cytotoxicity were conducted in procedures similar to those in Example 2. The relative amount of extracellular melanin and the relative cell survival rate of skin melanocytes to which Compounds 1-3 were added were measured. The result of the tyrosinase activity assay is illustrated in Table 5 and the results of the measurements of the relative amount of extracellular melanin and the relative cell survival rate are illustrated in Table 6.

B16 melanoma cells [2] = experiment: Inhibition of melanogenesis in skin melanocytes (relative amount of extracellular melanin); type: cell-based; settings: Mus musculus
Experimental: as §1
The supernatants of the cultures prepared in (1) were collected, 200 μL each was transferred into a 96 well plate, and then the absorbance was measured at 510 nm. The relative amount of extracellular melanin was calculated by determining the relative value to the control.
as §2

mushroom tyrosinase = experiment: Tyrosinase activity assay (methanol extract, fractions, Compounds 1-3); type: biochemical; settings: Table 5
Experimental: 1 mg of methanol extract from Syzygium polyanthum prepared in Production Example 3 was dissolved in 50 μL of DMSO and 550 μL of a buffer (50 mM solution of disodium hydrogen phosphate, pH 6.5). This extract solution was transferred in a 96 well plate so that the final concentrations of extract became 500, 250, 125, 62.5, 31.25, 15.625, 7.8125 and 0 μg/mL and diluted to 60 μL with the buffer. 30 μL of the tyrosinase solution (a buffered solution of 1 mg/16 mL mushroom tyrosinase (SIGMA), pH 6.5) and 110 μL of the substrate solution (2 mM L-tyrosine or 12 mM L-DOPA) were added to each well of the 96 well plate.
Each fraction was dissolved in 600 μL of DMSO and added to 96-well plates to the final concentrations of 50, 25 and 12.5 μg/mL.
In the tyrosinase activity assay, the final concentrations of each compound were adjusted to 100, 50, 25, and 12.5 mM and IC50 was calculated. […] The result of the tyrosinase activity assay is illustrated in Table 5 and the results of the measurements of the relative amount of extracellular melanin and the relative cell survival rate are illustrated in Table 6.

[3] = substrate L-DOPA, read-out: IC50 (μM) DOPA
[4] = substrate L-tyrosine, read-out: IC50 (μM) Tyrosine

Row | Structure (SMILES) | Cell Viability (%) (B16 melanoma cells [1]; 730 μM, 72 hours, MTT, relative to control, Table 3) | Cell Viability (%) (B16 melanoma cells [1]; 730 μM, Table 6) | activity at 730 µM (B16 melanoma cells [2]; 72 hours, relative to DMSO control, Table 3) | activity at 730 µM (B16 melanoma cells [2]; Table 6) | IC50 (mushroom tyrosinase; [3]) | IC50 (mushroom tyrosinase; [4]) | Cell Viability (%) (B16 melanoma cells [1]; 100 μM) | Cell Viability (%) (B16 melanoma cells [1]; 200 μM) | activity at 100 µM (B16 melanoma cells [2]) | activity at 200 µM (B16 melanoma cells [2]; 200 μM) | Cell Viability (%) (B16 melanoma cells [1]; 25 μM) | Cell Viability (%) (B16 melanoma cells [1]; 50 μM) | activity at 25 µM (B16 melanoma cells [2]) | activity at 50 µM (B16 melanoma cells [2]) | Cell Viability (%) (B16 melanoma cells [1]; 75 μM) | activity at 75 µM (B16 melanoma cells [2]; 75 μM)
1 | OC[C@H]1O[C@@H](Oc2ccc(O)cc2)[C@H](O)[C@@H](O)[C@@H]1O [Arbutin, reference compound] | 99% | 107.6% | 21.3% | 32.7% | – | – | – | – | – | – | – | – | – | – | – | –
2 | CCCCCC(=O)c1cc(O)c(C)c(O)c1O [Compound 1, 1-(2,3,5-Trihydroxy-4-methylphenyl)hexane-1-one] | – | – | – | – | 291 µM | 125 µM | 73.3% | 64.9% | 78.2% | 13.6% | – | – | – | – | – | –
3 | CCCCCCCC(=O)c1cc(O)c(C)c(O)c1O [Compound 2, 1-(2,3,5-Trihydroxy-4-methylphenyl)octane-1-one] | – | – | – | – | 616 µM | 481 µM | – | – | – | – | 95.0% | 87.4% | 99% | 13.5% | – | –
4 | CCCCC/C=C/CCC(=O)c1cc(O)c(C)c(O)c1O [Compound 3, (4E)-1-(2,3,5-Trihydroxy-4-methylphenyl)dec-4-en-1-one] | – | – | – | – | 489 µM | 84 µM | 72.9% | – | 11.4% | – | 94.3% | 99.8% | 107% | 27.2% | 92.5% | 9.7%

Source: patent US11090351B2, “Whitening agent” (KAO CORPORATION, priority 2016, dated 2021)
